Measurements from paper PMC12298624, “Anti-Infective Properties, Cytotoxicity, and In Silico ADME Parameters of Novel 4′-(Piperazin-1-yl)benzanilides” (Pharmaceuticals, 2025).
Read-outs that look alike come from different tables or passages of the source.

Columns and labels:
[1] = test system: E. coli NCTC 13353; test: MIC/MBC microbroth dilution (EUCAST); format: cell-based, Escherichia coli; conditions: for MBC: NCTC13353
Protocol: (§1) Minimum inhibitory concentrations (MIC values) were obtained using the microbroth dilution method as stated in the EUCAST guidelines. Tests were conducted on cation adjusted Mueller–Hinton broth (caMHB) or agar (caMHA). These were prepared and stored following the manufacturer’s guidelines. Biological organisms were prepared via growth on either Luria–Bertani (LB) or cation adjusted Mueller–Hinton agar plates. These were grown for 24 h at 37 °C, except for Micrococcus luteus where MICs took longer to grow and as a consequence were read after 48 h once a clear positive control could be observed. For the MIC experiment, the bacteria were prepared using the McFarland 0.5 standard and diluted 1 in 100 or 1 in 10 in caMHB following EUCAST and CSLI guidelines for the preparation of bacteria. Testing of the compounds using the microbroth dilution method took place in 96-well plates. Serial 2-fold dilutions of compounds in caMHB covering a range from 256 µg/mL to 0.25 µg/mL were prepared. Bacteria preparations (McFarland) were added to the compound dilutions, further halving the compound concentrations. The plate was then incubated for 18 h at 37 °C. Controls for the MIC experiments included a bacterial growth (positive) control of bacteria and caMHB only and a media only (negative) control. After incubation, the plates were read, whereby the positive control of bacteria was visible and the negative control was clear of contamination. The last clear well, where there is no growth of bacteria, was counted as the MIC value. […] The lowest concentration without any bacterial growth was counted as the MBC value. The following pathogens were used: Pseudomonas aeruginosa NCTC 13437, Escherichia coli NCTC 13353, Bacillus subtilis 168a, Serratia marcescens NCTC 9940, Micrococcus luteus ATCC 10240, Staphylococcus aureus JE2 USA 300, Acinetobacter baumannii ATCC 19606, and Klebsiella pneumoniae ATCC 700603. A concentration range of 256 µg/mL to 0.25 µg/mL of a combination of ciprofloxacin and meropenem against E. coli 25922 was used as an antibiotic control to ensure correct dilution and performance of the assay.

[2] = test system: P. falciparum NF54; test: In vitro microplate assay against P. falciparum NF54 (3H-hypoxanthine incorporation); format: cell-based, Plasmodium falciparum; conditions: read-out: P.f.NF54 IC50
Protocol: Serial drug dilutions of eleven 3-fold dilution steps covering a range from 100 to 0.002 µg/mL were prepared. […] After 48 h of incubation time, 0.05 mL of ^3H-hypoxanthine (=0.5 µCi) was added to each well of the plate. The plates were incubated for a further 24 h under the same conditions. Plates were then harvested using a BetaplateTM cell harvester (Wallac, Zurich, Switzerland). Red blood cells were transferred onto a glass fiber filter and then washed with distilled aqua demin. The dried filters were inserted into a plastic foil with 10 mL of scintillation fluid and counted in a BetaplateTM liquid scintillation counter (Wallac, Zurich, Switzerland). IC50 values were calculated from sigmoidal inhibition curves by linear regression using Microsoft Excel. […] Louis, MO, USA) was used as control.

[3] = Resazurin-based in vitro cytotoxicity with HepG2 cells; format: cell-based, human; conditions: HepG2 cells; human hepatocarcinoma cells, 48 h
Protocol: The HepG2 cells were washed with DPBS (Dulbecco’s PBS without calcium and magnesium, Gibco, Cat #21600-044) and trypsinized with trypsin solution in DPBS. Trypsinization was stopped by adding culture medium, and after being stained with Trypan Blue (SORS Ukraine) cells were counted using a counting chamber (Hausser Scientific, Cat #3500). The cell suspension was placed in a falcon tube containing plating medium DMEM/High glucose with 1% fetal bovine serum, 100 units/mL penicillin, and 100 µg/mL streptomycin. Cells at a density of 250,000 cells/mL were seeded in sterile 384-well plates (Greiner Bio-One, Cat #781091) in a volume of […] and incubated at 37 °C and 5% CO2. Serial dilutions of ten 3-fold dilution steps of test and reference compounds covering a range from 100.0 to 0.005 µM were added to the wells, followed by incubation at 37 °C and 5% CO2 for 48 h. Then, resazurin (50 µM final concentration) was added and plates were incubated for another 3 h. The plates were read with a SpectraMax microplate reader (Molecular Devices Cooperation, Sunnyvale, CA, USA)) using an extinction wavelength of 555 nm and an emission wavelength of 570 nm. IC50 values were calculated using GraphPad Prism 9.0 charting software. Doxorubicin (Sigma Aldrich D1515) was used as control.

[4] = Resazurin-based in vitro cytotoxicity with L-6 cells; format: cell-based, rat; conditions: rat
Protocol: Serial drug dilutions of eleven 3-fold dilution steps covering a range from 100 to 0.002 µg/mL were prepared. After 70 h of incubation, the plates were inspected under an inverted microscope to assure growth of the controls and sterile conditions. […] The plates were read with a Spectramax Gemini XS microplate fluorometer (Molecular Devices Cooperation, Sunnyvale, CA, USA) using an excitation wavelength of 536 nm and an emission wavelength of 588 nm. IC50 values were calculated by linear regression from the sigmoidal dose–inhibition curves using SoftmaxPro software Version 8.2.1 (Molecular Devices Cooperation, Sunnyvale, CA, USA). Podophyllotoxin (Sigma P4405) was used as control.

[5] = test system: M. luteus ATCC 10240; test: MIC/MBC microbroth dilution (EUCAST); format: cell-based, Micrococcus luteus
Protocol: as §1

[6] = test system: P. aeruginosa NCTC 13437; test: MIC/MBC microbroth dilution (EUCAST); format: cell-based; conditions: Pseudomonas aeruginosa, NCTC13437
Protocol: as §1

[7] = test system: S. marcescens NCTC 9940; test: MIC/MBC microbroth dilution (EUCAST); format: cell-based; conditions: Serratia marcescens, NCTC9940
Protocol: as §1

[8] = test system: K. pneumoniae ATCC 700603; test: MIC/MBC microbroth dilution (EUCAST); format: cell-based; conditions: Klebsiella pneumoniae, ATCC700603
Protocol: as §1

[9] = test system: S. aureus JE2 USA 300; test: MIC/MBC microbroth dilution (EUCAST); format: cell-based; conditions: Staphylococcus aureus, USA300, S. aureus JE2 USA 300
Protocol: as §1

[10] = test system: A. baumannii ATCC 19606; test: MIC/MBC microbroth dilution (EUCAST); format: cell-based, Acinetobacter baumannii; conditions: for MBC: ATCC19606
Protocol: as §1

[11] = test system: B. subtilis 168a; test: MIC/MBC microbroth dilution (EUCAST); format: cell-based, Bacillus subtilis
Protocol: as §1

[12] = Parallel artificial membrane permeability assay (PAMPA); conditions: PAMPA, PBS pH 7.4, 200 µM, 5 h, room temperature; for Papp at 5 h, 200 µM: pH 7.4, Pe
Protocol: With the high-throughput PAMPA the newly synthesized compounds were tested for their passive permeability through cell membranes without the influence of efflux pumps or transporter proteins. The assay was performed using a Corning® Gentest^TM Precoated PAMPA Plate System (Corning, Glendale, AZ, USA) with 96-well polystyrene plates. The bottom of the acceptor plate consists of a porous membrane, whereby the pores are lined with a lipid–oil–lipid triple layer. Stock solutions of each test compound at 10 mM were prepared in DMSO or methanol and diluted with phosphate-buffered saline (PBS at a pH of 7.4) to a final concentration of 200 µM. […] The donor plate (bottom plate) was filled with the compound solutions, whereby all compounds were tested in quadruplicates. Each well of the acceptor plate (top plate) was filled with PBS buffer. Donor and acceptor plates were combined and incubated at room temperature for 5 h. After that, the plates were separated and 150 µL of each well of both plates were transferred to 96-well UV plates (Greiner Bio-One). Absorption at different wavelengths covering a range from 200 to 300 nm was measured using a SpectraMax M3 UV plate reader. […] The plates were analyzed at the wavelength where the R2 value of the calibration curve was higher than 0.99 [47].
Recovery of compounds from donor and acceptor wells (mass retention) was calculated as shown in the equation below. Data were only accepted when recovery exceeded 70%. The equation is as follows:(3) R=1−[cDt×VD+cAt×VA]/(c0×VD) where

[13] = Escherichia coli, NCTC13353, read-out: MIC
[14] = Plasmodium falciparum, NF54, chloroquine-sensitive strain NF54, erythrocytic stages
[15] = Micrococcus luteus, ATCC10240, M. luteus ATCC 10240, read-out: MBC
[16] = Micrococcus luteus, ATCC10240, M. luteus ATCC 10240, read-out: MIC
[17] = Acinetobacter baumannii, ATCC19606, read-out: MIC
[18] = Bacillus subtilis, 168A, read-out: MIC

Row | Structure (SMILES) | MIC [1, 13] [µg/mL] | IC50 [2, 14] [µM] | MIC [5, 16] [µg/mL] | MIC [6] [µg/mL] | MIC [7] [µg/mL] | MIC [8] [µg/mL] | MIC [9] [µg/mL] | MIC [10, 17] [µg/mL] | MIC [11, 18] [µg/mL] | Papp at 5 h, 200 µM [12] [×10⁻⁶ cm/s] | MBC ([1]; Escherichia coli) [µg/mL] | IC50 at 48 h [3] [µM] | IC50 at 70 h [4] [µM] | MBC [5, 15] [µg/mL] | MBC [6] [µg/mL] | MBC [7] [µg/mL] | MBC [8] [µg/mL] | MBC [9] [µg/mL] | MBC ([10]; Acinetobacter baumannii) [µg/mL] | MBC ([11]; Bacillus subtilis, 168A) [µg/mL] | other results
1 | O=C(c1cccc(C(F)(F)F)c1Oc1ccc(F)cc1)N1CCNCC1 [Compound 52, [2-(4-Fluorophenoxy)-3-(trifluoromethyl)phenyl](piperazin-1-yl)methanon] | > 256 | 23.2 | 256 | > 256 | > 256 | > 256 | > 256 | 256 | > 256 | 8.35 | > 256 | > 100 | 136 | 256 | > 256 | > 256 | > 256 | > 256 | > 256 | > 256 | –
2 | O=C(Nc1ccccc1N1CCNCC1)c1cccc(C(F)(F)F)c1Sc1ccc(F)cc1 [Compound 55, 2-[(4-Fluorophenyl)sulfanyl]-N-[2-(piperazin-1-yl)phenyl]-3-(trifluoromethyl)benz-amide] | 32 to 64 | 0.692 | 16 to 64 | 256 | 256 | > 256 | – | 32 to 64 | 16 to 64 | 4.41 | 64 | 4.6 | 7.06 | 16 to 64 | > 256 | > 256 | > 256 | – | 64 | – | MIC [1]: 64 µg/mL; IC50 ([2]; chloroquine-sensitive strain NF54, erythrocytic stages): 0.69 µM; MBC ([5]; M. luteus ATCC 10240): 16 µg/mL; MIC ([5]; M. luteus ATCC 10240): 16 µg/mL; MIC [10]: 32 µg/mL; MIC [11]: 32 µg/mL; Pe [12]: 6.51 10^−6 cm/s
3 | O=C(Nc1cccc(N2CCNCC2)c1)c1cccc(C(F)(F)F)c1Oc1ccc(F)cc1 [Compound 56, 2-(4-Fluorophenoxy)-N-[3-(piperazin-1-yl)phenyl]-3-(trifluoromethyl)benzamide] | 256 | 5.45 | – | 256 | 256 | > 256 | 256 | 128 | 128 | 7.03 | > 256 | 12.7 | 34.2 | – | > 256 | > 256 | > 256 | 256 | 256 | 256 | –

Second part, led by results:

Row | MIC [1, 13] [µg/mL] | IC50 [2, 14] [µM] | MIC [5, 16] [µg/mL] | MIC [6] [µg/mL] | MIC [7] [µg/mL] | MIC [8] [µg/mL] | MIC [9] [µg/mL] | MIC [10, 17] [µg/mL] | MIC [11, 18] [µg/mL] | Papp at 5 h, 200 µM [12] [×10⁻⁶ cm/s] | Structure (SMILES) | MBC ([1]; Escherichia coli) [µg/mL] | IC50 at 48 h [3] [µM] | IC50 at 70 h [4] [µM] | MBC [5, 15] [µg/mL] | MBC [6] [µg/mL] | MBC [7] [µg/mL] | MBC [8] [µg/mL] | MBC [9] [µg/mL] | MBC ([10]; Acinetobacter baumannii) [µg/mL] | MBC ([11]; Bacillus subtilis, 168A) [µg/mL] | other results
4 | > 256 | 7 | > 256 | > 256 | > 256 | > 256 | 256 | > 256 | > 256 | 5.76 | Nc1cccc(C(=O)Nc2ccc(N3CCNCC3)cc2)c1Oc1ccc(F)cc1 [Compound 65, 3-Amino-2-(4-fluorophenoxy)-N-[4-(piperazin-1-yl)phenyl]benzamide] | > 256 | > 100 | 157 | > 256 | > 256 | > 256 | > 256 | 256 | > 256 | > 256 | –
5 | 256 | 2.04 | – | > 256 | > 256 | 128 | 128 | 256 | 128 | 14.2 | O=C(Nc1ccc(N2CCNCC2)cc1)c1ccccc1Oc1ccc(F)cc1 [Compound 59, 2-(4-Fluorophenoxy)-N-[4-(piperazin-1-yl)phenyl]benzamide] | > 256 | 38.9 | 25.4 | – | > 256 | > 256 | 128 | 128 | 256 | 128 | –
6 | > 256 | 3.15 | – | > 256 | > 256 | 128 | 128 | 128 | 128 | 6.89 | O=C(Nc1ccc(N2CCNCC2)cc1)c1cccc(C(F)(F)F)c1Oc1ccc(F)cc1 [Compound 57, 2-(4-Fluorophenoxy)-N-[4-(piperazin-1-yl)phenyl]-3-(trifluoromethyl)benzamide] | > 256 | 10.4 | 37.3 | – | > 256 | > 256 | 128 | 128 | 256 | 256 | –
